Test results reported in patent US20080280837A1, “Biologically Active Compounds with Anti-Angiogenic Properties” (priority 2004, published 2008).

Tests used:
[1] = system: MV522 human NSCLC tumour xenograft; assay: Nude mouse model of human MV522 non-small cell lung cancer tumours; format: in vivo, nude mice; details: group five: paclitaxel 16 mg/kg i.p. qdx5 alone
Procedure: Initial Maximum Tolerated Dose (MTD) studies were done in male nude mice to determine the appropriate intravenous dosing regimen for the MV522 human NSCLC tumour model. A range of doses between 0 and 50 mg/Kg for 28 days (qdx28) were tested. Mice were randomized into groups with 5 animals per group including vehicle control. Animals were weighed twice weekly starting on day one and observed daily for adverse reactions or toxicity due to the agent. MTD studies determined the selection of 20 mg/kg and 35 mg/kg for intravenous dosing once per day for 28 days in the MV522 human NSCLC tumour xenograft model.
Male nude mice (nu/nu) between 5 and 6 weeks of age weighing approximately 20 g were implanted subcutaneously (s.c) by trocar with fragments of MV522 human tumour carcinomas harvested from s.c growing tumours in host mice. MV-522 is a metastatic human lung adenocarcinoma line. When tumours reached approximately 72 mg in size animals were pair matched into treatment and control groups with 10 mice in each group. Each mouse was tagged and followed individually throughout the experiment.
“Compound 1” was administered i.v. in a saline vehicle from day one. Vehicle control group animals were administered saline i.v. There were nine treatment groups including the vehicle control group. […]
At the end of the treatment period the mice were weighed and sacrificed. Each tumour was excised and weighed and a mean actual tumour weight (mg) per group was calculated along with the mean actual volume (mm^3). […] Mean tumour regression was determined using the formula [1−(mean actual tumour weightFINAL/mean tumour weightDAY 1)×100%].

in vitro = details: human, Caco-2
Procedure: The Caco-2 assay was performed according to the procedure described in the following cited article [Caco-2 Monolayers in Experimental and Theoretical Predictions of Drug Transport, Artursson P, Palm K, Luthman K., Adv. Drug Deliv. Rev., 2001, 46, 27-43].

SSTR-3 = target: T1, SSTR-3 (Homo sapiens, UniProt P32745); assay: Radioligand binding screen against somatostatin subtype SSTR-3; details: Table 8; shown where Ki could not be determined (NoModel); read-out: IC50 SSTR3 (in parentheses)
T1 construct: expressed in transfected cells
Procedure: (§1) Receptor membrane preparations containing the desired cloned receptor (for example cloned human somatostatin receptor subtype 5, SSTR5) and radio-labeled ligand (for example 3-[^125I]iodotyrosyl^11 Somatostatin-14)) were diluted at the concentration required for testing and according to the specific parameters associated with the selected receptor-ligand combination, including receptor Bmax, ligand Kd and any other parameters necessary to optimize the experimental conditions. When tested for competition activity to the reference ligand, “compound 1” was mixed with membrane suspension and the radiolabeled reference ligand (with or without an excess of cold ligand to the receptor for determination of non-specific binding) and incubated at the temperature required by internal standard operating procedures. Following incubation, the binding reaction was stopped by the addition of ice-cold washing buffer and filtered on appropriate filters, which are then counted. Data analysis and curve-fitting was performed with XLfit (IDBS).
(§2) 10 mM solutions of test compounds in 100% DMSO were prepared. ˜160 μl was used for each dilution (20 μl/well in triplicate).
(§3) A 1.25 mM assay stock was prepared by making a 1:8 dilution of the 10 mM solution. (To 30 μL of the 10 mM solution was added 210 μL milli-Q H2O. A 1:5 dilution series in milli-Q H2O was then prepared.
(§4) In primary screening experiments compounds were tested in duplicate for a particular concentration.

[2] = target: T2, Human SST5 somatostatin receptor (SSTR5) (Homo sapiens, UniProt P35346); assay: Filter plate assay for SST5 receptor, displacement of [125I]SST-14; format: binding; details: Table 8
T2 construct: expressed in transfected cells; host or cells: HEK-293 EBNA
How it was run: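 HEK-293 EBNA membranes expressing human SST5 (5.5 μg) incubated 60 min at 25 °C with 4 nM [125I]SST-14 and compound in pH 7.5 Tris/EGTA/MgCl2/sucrose buffer. Bound radioactivity collected on PEI-coated glass fiber filters and counted; triplicate 1:5 dilution series from 125 μM, non-specific binding with excess cold ligand.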

[3] = system: Human Umbilical Vein Endothelial Cells (HUVEC); assay: Endothelial cell proliferation assay (MTS); format: cell-based; details: 48 hrs
Procedure: Human Umbilical Vein Endothelial Cells (HUVEC from Clonetics) were plated in 96 well plates at 1000 cell per well in EGM-2 medium (Clonetics). Cells were grown overnight at 37° C. in 5% CO2. Fresh EGM-2 medium containing compound at the desired concentration was added to the wells and the cells allowed to grow for a further 48 hrs. A MTS (Promega) colorimetric assay was performed after 48 hrs to determine cell growth according to the manufacturers instructions. Results are presented in terms of percentage growth.

HUVEC tube formation = assay: Matrigel tube formation assay; format: cell-based, human
Procedure: HUVEC (Clonetics) were plated in 96 well plates in EGM-2 media (Clonetics) at 2.5 to 3×10^4 cells per well. Cells of less than 6 passages were used in all studies. Wells were precoated with 50 μL growth factor containing Matrigel (Becton Dickinson). HUVEC were allowed to form tubes by incubation at 37° C. in 5% CO2 for 22 hrs. In test wells compound was added in the desired concentration. Photographic images of the wells ×4 magnification were used to determine size of the tubes, length of tubes and number of junctions using image analysis software.

SSTR-2 = target: T3, SSTR-2 (Homo sapiens, UniProt P30874); assay: Radioligand binding screen against somatostatin subtype SSTR-2; details: Table 8; read-out: Ki SSTR2
T3 construct: expressed in transfected cells
Procedure: as §1, §2, §3, §4

SSTR-1 = target: T4, SSTR-1 (Homo sapiens, UniProt P30872); assay: Radioligand binding screen against somatostatin subtype SSTR-1; details: Table 8; read-out: Ki SSTR1
T4 construct: expressed in transfected cells
Procedure: as §1, §2, §3, §4

SSTR-4 = target: T5, SSTR-4 (Homo sapiens, UniProt P31391); assay: Radioligand binding screen against somatostatin subtype SSTR-4 (SST4 assay); details: Table 8; read-out: Ki SSTR4
T5 construct: expressed in transfected cells
Procedure: as §1, §2, §3
Assays were performed in triplicate at each concentration within the 1:5 dilution series: 250 μM, 50 μM, 10 μM, […], 0.4 μM, 0.08 μM, 0.016 μM, 0.0032 μM, etc. (for SST4 assay) and 125 μM, 10 μM, 2 μM, 1 μM, 0.5 μM, etc (for SST5 assay).
as §4

T3 sequence (P30874 whole entry): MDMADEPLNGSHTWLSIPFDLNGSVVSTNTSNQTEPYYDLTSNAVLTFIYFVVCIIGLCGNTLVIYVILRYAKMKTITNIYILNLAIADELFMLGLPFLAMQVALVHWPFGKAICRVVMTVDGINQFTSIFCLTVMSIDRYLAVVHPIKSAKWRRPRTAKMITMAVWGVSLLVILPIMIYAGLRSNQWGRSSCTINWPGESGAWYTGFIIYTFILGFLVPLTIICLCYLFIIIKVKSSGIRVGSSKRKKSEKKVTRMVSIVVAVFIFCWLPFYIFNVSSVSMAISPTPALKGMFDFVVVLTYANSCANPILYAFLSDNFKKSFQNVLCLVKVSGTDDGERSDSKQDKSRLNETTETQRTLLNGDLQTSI
T4 sequence (P30872 whole entry, species assumed): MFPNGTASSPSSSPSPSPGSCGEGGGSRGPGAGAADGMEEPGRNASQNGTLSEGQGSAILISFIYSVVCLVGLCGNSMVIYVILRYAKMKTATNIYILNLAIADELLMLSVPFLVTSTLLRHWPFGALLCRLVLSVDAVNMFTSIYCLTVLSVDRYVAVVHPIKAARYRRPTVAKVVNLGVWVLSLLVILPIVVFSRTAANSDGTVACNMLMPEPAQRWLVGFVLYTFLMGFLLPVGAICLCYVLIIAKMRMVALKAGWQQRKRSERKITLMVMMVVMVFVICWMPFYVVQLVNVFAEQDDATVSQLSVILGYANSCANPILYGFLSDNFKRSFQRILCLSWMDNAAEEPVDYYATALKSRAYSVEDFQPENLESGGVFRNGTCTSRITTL
T2 sequence (P35346 whole entry): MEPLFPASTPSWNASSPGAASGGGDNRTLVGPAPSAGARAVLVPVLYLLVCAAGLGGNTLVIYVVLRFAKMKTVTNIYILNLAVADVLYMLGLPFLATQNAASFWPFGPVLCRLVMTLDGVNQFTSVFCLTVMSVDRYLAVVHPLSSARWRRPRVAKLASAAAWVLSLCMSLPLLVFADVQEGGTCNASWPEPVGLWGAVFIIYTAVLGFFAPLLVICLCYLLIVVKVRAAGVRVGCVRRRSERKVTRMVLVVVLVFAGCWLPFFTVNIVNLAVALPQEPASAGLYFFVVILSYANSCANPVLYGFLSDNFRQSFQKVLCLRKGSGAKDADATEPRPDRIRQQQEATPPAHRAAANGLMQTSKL
T1 sequence (P32745 whole entry): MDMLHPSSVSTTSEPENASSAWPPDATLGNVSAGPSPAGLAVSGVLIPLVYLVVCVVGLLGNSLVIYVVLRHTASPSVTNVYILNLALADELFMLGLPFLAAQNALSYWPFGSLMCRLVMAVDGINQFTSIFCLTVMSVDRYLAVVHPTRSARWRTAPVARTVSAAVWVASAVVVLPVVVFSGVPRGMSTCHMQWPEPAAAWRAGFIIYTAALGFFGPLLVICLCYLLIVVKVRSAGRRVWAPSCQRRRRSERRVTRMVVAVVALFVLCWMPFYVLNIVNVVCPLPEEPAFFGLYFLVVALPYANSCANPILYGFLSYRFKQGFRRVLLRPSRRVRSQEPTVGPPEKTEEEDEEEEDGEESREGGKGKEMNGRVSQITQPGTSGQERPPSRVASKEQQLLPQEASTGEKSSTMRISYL
T5 sequence (P31391 whole entry): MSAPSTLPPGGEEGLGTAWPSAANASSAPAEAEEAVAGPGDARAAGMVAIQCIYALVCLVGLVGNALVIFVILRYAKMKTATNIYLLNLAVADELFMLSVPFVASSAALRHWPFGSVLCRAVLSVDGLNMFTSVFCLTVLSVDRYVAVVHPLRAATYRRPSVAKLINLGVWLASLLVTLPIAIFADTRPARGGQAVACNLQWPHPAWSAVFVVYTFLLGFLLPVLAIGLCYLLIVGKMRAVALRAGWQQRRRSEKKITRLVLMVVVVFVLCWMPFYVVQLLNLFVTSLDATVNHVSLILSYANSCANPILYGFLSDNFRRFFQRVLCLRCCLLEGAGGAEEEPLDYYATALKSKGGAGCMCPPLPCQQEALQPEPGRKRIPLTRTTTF

Row | SMILES | IC50 (SSTR-3) [nM] | Percent cell growth at 125 µM [3] [%] | Percent cell growth at 250 µM [3] [%] | EC50 (HUVEC tube formation; Homo sapiens, 22 h) [nM] | Ki (SSTR-2) [nM] | Ki (SSTR-1) [nM] | further results
1 | CC(=O)O[C@H]1C(=O)[C@@]2(C)[C@H]([C@H](OC(=O)c3ccccc3)[C@]3(O)C[C@H](OC(=O)[C@H](O)[C@@H](NC(=O)c4ccccc4)c4ccccc4)C(C)=C1C3(C)C)[C@]1(OC(C)=O)CO[C@@H]1C[C@@H]2O [paclitaxel, reference compound] |  |  |  |  |  |  | Tumour growth inhibition (TGI) [1]: 42.1%
2 | OC[C@@H](O)[C@@H](O)[C@H](O)[C@H](O)CO [mannitol, reference compound] |  |  |  |  |  |  | Papp (in vitro): 0.813 ×10⁻⁶ cm/s
3 | CS[C@@H]1O[C@H](COCc2ccc3ccccc3c2)[C@@H](O)[C@@H](OCc2ccc3ccccc3c2)[C@H]1NC(=O)CCN [Compound 10] | 228 | -85 | -63 | 125000 | 726 | > 10000 | Ki [2]: 220 nM
4 | COCC1OC(OCc2ccc(Cl)cc2)C(NC(=O)CCN)C(OCc2ccc3ccccc3c2)C1O (stereo not drawn) [3 alpha] |  |  |  |  |  |  | EC50 (HUVEC tube formation; 22 hrs, 50% inhibition of tube formation): 45000 nM
5 | CS[C@@H]1O[C@H](COCc2ccc(Cl)cc2)[C@@H](O)[C@@H](OCc2ccc3ccccc3c2)[C@H]1NC(=O)CCN [Compound 9] | 0.8 | -86 | -78 | 50000 | 490 | > 10000 | IC50 ([2]; shown where Ki could not be determined (NoModel), read-out: IC50 SSTR5 (in parentheses)): 1.1 nM; Ki (SSTR-4): 463 nM
